The values that follow come from US20250214947A1, “3,4-DIHYDROQUINOXALINE-2-CARBOXIMIDE DERIVATIVE COMPOUND AND PHARMACEUTICAL COMPOSITION COMPRISING SAME FOR PREVENTING OR TREATING CANCER DISEASE” (Cureverse Incorporated, priority 2022, published 2025).

One data set has as its target T1, HDAC10 (Homo sapiens, UniProt Q969S8).
T1 sequence (Q969S8 1-669): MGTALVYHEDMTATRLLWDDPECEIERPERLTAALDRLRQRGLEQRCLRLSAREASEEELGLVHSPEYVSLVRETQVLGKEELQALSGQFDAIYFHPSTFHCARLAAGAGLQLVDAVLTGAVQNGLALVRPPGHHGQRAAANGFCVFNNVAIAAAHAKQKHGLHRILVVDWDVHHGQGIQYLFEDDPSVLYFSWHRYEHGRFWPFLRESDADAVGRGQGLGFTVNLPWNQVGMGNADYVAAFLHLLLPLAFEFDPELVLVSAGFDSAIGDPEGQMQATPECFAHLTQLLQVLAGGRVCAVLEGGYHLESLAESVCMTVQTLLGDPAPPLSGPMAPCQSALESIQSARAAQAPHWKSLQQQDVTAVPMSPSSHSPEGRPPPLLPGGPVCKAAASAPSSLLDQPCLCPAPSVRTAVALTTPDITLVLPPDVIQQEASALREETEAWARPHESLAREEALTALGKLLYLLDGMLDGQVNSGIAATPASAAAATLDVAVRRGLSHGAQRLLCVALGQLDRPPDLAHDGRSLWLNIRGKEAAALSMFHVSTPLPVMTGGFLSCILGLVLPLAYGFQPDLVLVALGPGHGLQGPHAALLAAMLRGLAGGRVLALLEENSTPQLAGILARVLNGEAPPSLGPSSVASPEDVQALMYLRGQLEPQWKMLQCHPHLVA
Put plainly: Selective inhibitory effect, HDAC Fluorogenic assay kit, HDAC10. The note with it: read-out: HDAC10 enzyme activity (%).

For a further data set, the target named is T2, HDAC6 (Homo sapiens, UniProt Q9UBN7).
T2 sequence (Q9UBN7 1-1215): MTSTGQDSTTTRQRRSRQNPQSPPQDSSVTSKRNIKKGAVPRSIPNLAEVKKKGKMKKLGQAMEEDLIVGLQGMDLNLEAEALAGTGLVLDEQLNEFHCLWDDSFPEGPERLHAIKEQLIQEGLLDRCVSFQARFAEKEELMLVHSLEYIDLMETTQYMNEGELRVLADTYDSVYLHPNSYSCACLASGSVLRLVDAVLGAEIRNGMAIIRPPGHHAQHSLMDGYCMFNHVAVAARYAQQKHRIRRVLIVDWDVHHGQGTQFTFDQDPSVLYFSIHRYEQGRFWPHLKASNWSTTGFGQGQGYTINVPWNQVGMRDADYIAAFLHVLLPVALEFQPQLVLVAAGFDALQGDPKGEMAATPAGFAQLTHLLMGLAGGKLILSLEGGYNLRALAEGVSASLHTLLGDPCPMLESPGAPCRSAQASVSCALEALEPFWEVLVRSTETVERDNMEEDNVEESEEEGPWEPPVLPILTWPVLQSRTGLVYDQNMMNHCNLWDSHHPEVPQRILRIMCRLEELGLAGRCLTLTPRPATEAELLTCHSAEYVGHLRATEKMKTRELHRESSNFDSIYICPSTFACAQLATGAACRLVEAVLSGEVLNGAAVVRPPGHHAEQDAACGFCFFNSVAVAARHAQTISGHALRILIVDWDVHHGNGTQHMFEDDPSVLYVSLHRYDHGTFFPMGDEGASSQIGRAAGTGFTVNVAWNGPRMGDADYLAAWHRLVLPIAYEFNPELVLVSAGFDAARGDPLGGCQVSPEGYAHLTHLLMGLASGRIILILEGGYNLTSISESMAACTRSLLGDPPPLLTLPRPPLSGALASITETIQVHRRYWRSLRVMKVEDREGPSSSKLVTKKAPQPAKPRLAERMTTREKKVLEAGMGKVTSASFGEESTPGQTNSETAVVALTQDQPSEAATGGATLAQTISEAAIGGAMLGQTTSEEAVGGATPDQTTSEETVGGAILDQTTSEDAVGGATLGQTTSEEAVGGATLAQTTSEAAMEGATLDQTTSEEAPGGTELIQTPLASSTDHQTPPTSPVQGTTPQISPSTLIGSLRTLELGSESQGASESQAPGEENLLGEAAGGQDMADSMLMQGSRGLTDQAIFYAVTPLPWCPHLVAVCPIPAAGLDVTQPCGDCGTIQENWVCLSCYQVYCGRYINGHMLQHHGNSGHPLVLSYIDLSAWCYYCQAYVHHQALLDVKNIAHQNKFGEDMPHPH
Put plainly: Selective inhibitory effect, HDAC Fluorogenic assay kit, HDAC6. Conditions: read-out: HDAC6 enzyme activity (%).

The next data set relates to Liver cancer cells Huh-7. Put plainly: Liver cancer cell growth inhibition, CellTiter-Glo Luminescent Cell Viability Assay. In kind it is cell-based. The note with it: various concentrations; day 1; FIG. 6. As for the experimental part:
In addition, an analysis of liver cancer growth inhibitory activity was performed. Liver cancer cells Huh-7 cells were dispensed in a 96-well plate at 1×10^4 cells/ml, and after 20 hours, PCI34051, Example 27, and Example 35 were added at various concentrations, and cultured for 24 and 48 hours at 37° C. in a 5% CO2 atmosphere. After culturing, 100 l CellTiter-Glo Luminescent Cell Viability Assay reagent was added and the luminescence signal was measured after 0.5-1 hour. The luminescence signal was measured using IVIS [PerkinElmer, (Waltham, USA)].
In general terms: In ATP-based viability assays light output follows the ATP content of the culture.

Data set [1] can be described thus: Body weight of mice during drug administration, prostate cancer model. The format is in vivo, nude mice. The note with it: 50 mg/kg orally once a day; drug administration period; FIG. 5. As for the experimental part:
A prostate cancer model was established by subcutaneously transplanting PC-3 cell lines into nude mice, and the mice were divided into two groups (group 1: vehicle administration group (10% DSMO, 30% PEG400, 60% DW), group 2: 50 mg/kg Example 27 compound administration group). The drug was administered orally once a day for 12 times. To evaluate the therapeutic efficacy, tumors were […] before drug administration and on days 3, 6, 8, 10, 12, and 14 after drug administration, and tumor volumes were measured. Tumor volume (mm^3) was calculated as follows (tumor volume (mm^3)=(A×B^2)/2, where A=tumor long axis, B=tumor short axis), and the results are shown in FIG. 2.

Another data set has as its system Huh-7 cell lines. Put plainly: Liver cancer model, Huh-7 cell lines subcutaneously transplanted into nude mice. The format is in vivo. The note with it: 50 mg/kg once a day. The procedure:
In addition, a liver cancer model was established by subcutaneously transplanting Huh-7 cell lines into nude mice. After establishing the liver cancer model, the mice were divided into two groups (group 1: vehicle administration group, group 2: 50 mg/kg Example 27 compound administration group). The drug was administered once a day for 12 times. To evaluate therapeutic efficacy, tumor volume was measured before drug administration and on days 4, 7, 10, 13, and 15 after drug administration. Tumor volume (mm^3) was calculated as follows (tumor volume (mm^3)=(A×B^2)/2, where A=tumor long axis, B=tumor short axis). Body weight was measured before administration and on days 4, 7, 10, 13, and 15 after drug administration during the drug administration period. Tumor was excised on day 15 after drug treatment and body weight was measured.

Protocol for HDAC10: (§1) For analysis, HDAC substrate 3 was diluted in buffer to a concentration of 200 μM and used in HDAC 1, 2, 3, 6, and 10 assays, HDAC substrate 2A was diluted in buffer to a concentration of 200 μM and used in HDAC 4, 7, 9, and 11 assays, HDAC substrate 2A was diluted in buffer to a concentration of 20 μM and used in HDAC 8 assays. For the HDAC 11 assay, a dedicated buffer included in the kit was used separately, and the same buffer was used for the remaining assays. The compound of the Example was diluted to 1 mM (1% DMSO concentration) using DMSO to obtain a final concentration of 10 μM, and prepared by diluting 1/10 with assay buffer. In a 96-well black round-bottom plate, 5 μL of the diluted compound of the Example, 5 μL of the diluted HDAC substrate, 5 μL of BSA (1 mg/ml), 5 μL of the HDAC enzyme diluted to the appropriate concentration, and 30 μL of assay buffer were added, and the enzyme reaction was performed at 37° C. for 30 minutes. […] Afterwards, 50 μL of 2×HDAC developer was added to each well. After reacting for 15 minutes at room temperature, the fluorescence values at excitation wavelengths of 350-380 nm and emission wavelengths of 440-460 nm were measured using a microplate reader (Synergy Neo).
Protocol for HDAC6: as §1

Regarding `Cc1cc2nc(C(=O)NCCc3c[nH]c4ccc(O)cc34)c(=O)n(C[C@H](O)[C@H](O)[C@H](O)CO)c2cc1C` [Example 27, N-(2-(5-hydroxy-1H-indol-3-yl)ethyl)-6,7-dimethyl-3-oxo-4-((2S,3S,4R)-2,3,4,5-tetrahydroxypentyl)-3,4-dihydroquinoxaline-2-carboxamide], the remaining activity at 10 µM is 87.2% on HDAC10 and 43.7% at HDAC6. The “Huh-7 cell viability (in words)” value in the data set on Liver cancer cells Huh-7 is “concentration-dependent inhibition of cancer cell viability”. Also, in data set [1], the “body weight of the mice (in words)” value was “no rapid weight loss was confirmed”. The “tumor volume (in words)” value in the data set on Huh-7 cell lines (12 times, up to day 15, p<0.005 vs vehicle, FIG. 7A) was “tumor growth inhibitory effect”. Moreover, the “tumor weight (in words)” value in the data set with Huh-7 cell lines (tumor removed on day 15, p<0.0005 vs vehicle, FIGS. 7B and 7C) is recorded as “tumor weight of the vehicle group was significantly higher than that of the Example 27 compound administration group”.
